Assay results taken from patent US11807644B2 (PMV Pharmaceuticals, Inc., priority 2020, dated 2023).

target: T1, recombinant His-tag Y220C p53 DBD protein (Homo sapiens, UniProt P04637, Y220C); assay: In vitro DNA binding activity assay (TR-FRET): binding of His-tag Y220C p53 DBD to biotin-labeled consensus DNA; format: biochemical; details: SC150 = concentration to increase DNA binding by […], His-tag Y220C p53 DBD, biotin-labeled consensus DNA
T1 construct: recombinant His-tag Y220C p53 DBD protein (amino acids #˜94-312)

Compound	Y220C SC150 (μM)
CN1CCC(Nc2cccc3c2cc(-c2nnc(CNC(=O)c4ccc(CN5CCOCC5)cc4)s2)n3CC(F)(F)F)CC1 [Compound 45B, N-[(5-{4-[(1-methylpiperidin-4-yl)amino]-1-(2,2,2-trifluoroethyl)-1H-indol-2-yl}-1,3,4-thiadiazol-2-yl)methyl]-4-[(morpholin-4-yl)methyl]benzamide]	* (* = 0 μM ≤ SC150 < 0.1 μM)
CN1CCC(Nc2cccc3c2cc(-c2nnc(CNC(=O)c4cccc(CN5CCOCC5)c4)s2)n3CC(F)(F)F)CC1 [Compound 46B, N-[(5-{4-[(1-methylpiperidin-4-yl)amino]-1-(2,2,2-trifluoroethyl)-1H-indol-2-yl}-1,3,4-thiadiazol-2-yl)methyl]-3-[(morpholin-4-yl)methyl]benzamide]	* (* = 0 μM ≤ SC150 < 0.1 μM)
CN1CC[C@@H](Nc2cccc3c2cc(-c2nnc(CNC(=O)C4CC4)s2)n3CC(F)(F)F)[C@@H](F)C1 [Compound 47B, N-{[5-(4-{[(3S,4R)-3-fluoro-1-methylpiperidin-4-yl]amino}-1-(2,2,2-trifluoroethyl)-1H-indol-2-yl)-1,3,4-thiadiazol-2-yl]methyl}cyclopropanecarboxamide]	* (* = 0 μM ≤ SC150 < 0.1 μM)
CN1CC[C@H](Nc2cccc3c2cc(-c2nnc(CNC(=O)C4CC4)s2)n3CC(F)(F)F)[C@H](F)C1 [Compound 48B, N-{[5-(4-{[(3R,4S)-3-fluoro-1-methylpiperidin-4-yl]amino}-1-(2,2,2-trifluoroethyl)-1H-indol-2-yl)-1,3,4-thiadiazol-2-yl]methyl}cyclopropanecarboxamide]	* (* = 0 μM ≤ SC150 < 0.1 μM)
CN1CCC(Nc2cccc3c2cc(-c2nnc(CNC(=O)c4ccncc4)s2)n3CC(F)(F)F)CC1 [Compound 49B, N-[(5-{4-[(1-methylpiperidin-4-yl)amino]-1-(2,2,2-trifluoroethyl)-1H-indol-2-yl}-1,3,4-thiadiazol-2-yl)methyl]pyridine-4-carboxamide]	** (** = 0.1 μM ≤ SC150 < 0.5 μM)
CN1CCC(Nc2cccc3c2cc(-c2nnc(CNC(=O)c4ccccc4F)s2)n3CC(F)(F)F)CC1 [Compound 50B, 2-fluoro-N-[(5-{4-[(1-methylpiperidin-4-yl)amino]-1-(2,2,2-trifluoroethyl)-1H-indol-2-yl}-1,3,4-thiadiazol-2-yl)methyl]benzamide]	** (** = 0.1 μM ≤ SC150 < 0.5 μM)
CN1CCC(Nc2cccc3c2cc(-c2nnc(CNC(=O)c4cccc(F)c4)s2)n3CC(F)(F)F)CC1 [Compound 51B, 3-fluoro-N-[(5-{4-[(1-methylpiperidin-4-yl)amino]-1-(2,2,2-trifluoroethyl)-1H-indol-2-yl}-1,3,4-thiadiazol-2-yl)methyl]benzamide]	* (* = 0 μM ≤ SC150 < 0.1 μM)
CN1CCC(Nc2cccc3c2cc(-c2nnc(CNC(=O)c4ccc(F)cc4)s2)n3CC(F)(F)F)CC1 [Compound 52B, 4-fluoro-N-[(5-{4-[(1-methylpiperidin-4-yl)amino]-1-(2,2,2-trifluoroethyl)-1H-indol-2-yl}-1,3,4-thiadiazol-2-yl)methyl]benzamide]	* (* = 0 μM ≤ SC150 < 0.1 μM)
CN1CCC(Nc2cccc3c2cc(-c2nnc(CNC(=O)c4ccc(C(=O)O)cc4)s2)n3CC(F)(F)F)CC1 [Compound 54B, 4-{[(5-{4-[(1-methylpiperidin-4-yl)amino]-1-(2,2,2-trifluoroethyl)-1H-indol-2-yl}-1,3,4-thiadiazol-2-yl)methyl]carbamoyl}benzoic acid]	** (** = 0.1 μM ≤ SC150 < 0.5 μM)
CN1CCC(Nc2cccc3c2cc(-c2nnc(CNC(=O)c4ccc5[nH]ncc5c4)s2)n3CC(F)(F)F)CC1 [Compound 55B, N-[(5-{4-[(1-methylpiperidin-4-yl)amino]-1-(2,2,2-trifluoroethyl)-1H-indol-2-yl}-1,3,4-thiadiazol-2-yl)methyl]-1H-indazole-5-carboxamide]	** (** = 0.1 μM ≤ SC150 < 0.5 μM)
CNC(=O)NCc1nnc(-c2cc3c(NC4CCN(C)CC4)cccc3n2CC(F)(F)F)s1 [Compound 56B, 3-methyl-1-[(5-{4-[(1-methylpiperidin-4-yl)amino]-1-(2,2,2-trifluoroethyl)-1H-indol-2-yl}-1,3,4-thiadiazol-2-yl)methyl]urea]	** (** = 0.1 μM ≤ SC150 < 0.5 μM)
CC(C)C(=O)NCc1nnc(-c2cc3c(NC4CCN(C)CC4)cccc3n2CC(F)(F)F)s1 [Compound 57B, 2-methyl-N-[(5-{4-[(1-methylpiperidin-4-yl)amino]-1-(2,2,2-trifluoroethyl)-1H-indol-2-yl}-1,3,4-thiadiazol-2-yl)methyl]propanamide]	** (** = 0.1 μM ≤ SC150 < 0.5 μM)
CC(=O)NCc1nnc(-c2cc3c(NC4CCN(C)CC4)cccc3n2CC(F)(F)F)s1 [Compound 58B, N-[(5-{4-[(1-methylpiperidin-4-yl)amino]-1-(2,2,2-trifluoroethyl)-1H-indol-2-yl}-1,3,4-thiadiazol-2-yl)methyl]acetamide]	** (** = 0.1 μM ≤ SC150 < 0.5 μM)
CN1CCC(Nc2cccc3c2cc(-c2nnc(CNC(=O)Cc4ccccc4)s2)n3CC(F)(F)F)CC1 [Compound 59B, N-[(5-{4-[(1-methylpiperidin-4-yl)amino]-1-(2,2,2-trifluoroethyl)-1H-indol-2-yl}-1,3,4-thiadiazol-2-yl)methyl]-2-phenylacetamide]	** (** = 0.1 μM ≤ SC150 < 0.5 μM)
COCC(=O)NCc1nnc(-c2cc3c(NC4CCN(C)CC4)cccc3n2CC(F)(F)F)s1 [Compound 60B, 2-methoxy-N-[(5-{4-[(1-methylpiperidin-4-yl)amino]-1-(2,2,2-trifluoroethyl)-1H-indol-2-yl}-1,3,4-thiadiazol-2-yl)methyl]acetamide]	** (** = 0.1 μM ≤ SC150 < 0.5 μM)

same assay, conditions: concentration to increase DNA binding by […], incubated at either 27° C. or 29° C. for 60 min

Compound	SC150 (μM)
COCC(O)CN1CCC(Nc2cccc3c2cc(-c2ccc4c(C)[nH]nc4c2)n3CC(F)(F)F)CC1 (stereo not shown) [Compound 47A, 1-methoxy-3-(4-{[2-(3-methyl-2H-indazol-6-yl)-1-(2,2,2-trifluoroethyl)-1H-indol-4-yl]amino}piperidin-1-yl)propan-2-ol]	+++ (+++ = 5 μM ≤ SC150 < 10 μM)
COCC(O)CN1CCC(Nc2cccc3c2cc(-c2ccc4c[nH]nc4c2)n3CC(F)(F)F)CC1 (stereo not shown) [Compound 48A, 1-(4-{[2-(2H-indazol-6-yl)-1-(2,2,2-trifluoroethyl)-1H-indol-4-yl]amino}piperidin-1-yl)-3-methoxypropan-2-ol]	+++ (+++ = 5 μM ≤ SC150 < 10 μM)
COCC(O)CN1CCC(Nc2cccc3c2cc(-c2ccc4c(c2)NC(=O)C4)n3CC(F)(F)F)CC1 (stereo not shown) [Compound 49A, 4-{[1-(2-hydroxy-3-methoxypropyl)piperidin-4-yl]amino}-1-(2,2,2-trifluoroethyl)-2′,3′-dihydro-1H,1′H-[2,6′-biindol]-2′-one]	++ (++ = 2 μM ≤ SC150 < 5 μM)
COCC(O)CN1CCC(Nc2cccc3c2cc(-c2cccc(NC(C)=O)c2)n3CC(F)(F)F)CC1 (stereo not shown) [Compound 51A, N-[3-(4-{[1-(2-hydroxy-3-methoxypropyl)piperidin-4-yl]amino}-1-(2,2,2-trifluoroethyl)-1H-indol-2-yl)phenyl]acetamide]	++++ (++++ = 10 μM ≤ SC150 < 35 μM)
